Laboratory results as given in US20130143902A1, “COMPOSITIONS AND METHODS OF TREATING A PROLIFERATIVE DISEASE WITH A QUINAZOLINONE DERIVATIVE” (GILEAD CALISTOGA LLC, priority 2011, published 2013).

Tests used:
[1] = tested on: CCRF-CEM cells; test: Immunoblot of signaling and pro-apoptotic pathways in CCRF-CEM cells; format: cell-based
Description: Cell lysates (from cell lines or thymocytes) were prepared on ice in M-PER Mammalian Protein Extraction reagent (Pierce) containing a cocktail of protease and phosphatase inhibitors as described in Swat, W. et al., Essential role of PI3 Kdelta and PI3 Kgamma in thymocyte survival, Blood 107, 2415-2422 (2006). Equal amounts of total protein from lysates were separated using SDS-PAGE, transferred to PVDF membrane (Immobilon-P, Millipore). Membranes were incubated overnight incubation with appropriate primary antibodies. Bound antibodies were visualized with HRP-conjugated secondary antibodies and ECL chemistry (SuperPico West, Pierce).
The ability of Compound B treatment to interfere with proapoptotic effectors such as the BH3-only pro-apoptotic protein BAD and to repress the expression of BIM was also examined. CCRF-CEM cells were treated with Compound B ranging from 0, 0.25, 0.5, 1.0, 2.5, 5.0 and 10 μM.

[2] = tested on: CCRF-CEM xenograft; test: Intravenous (systemic) CCRF-CEM xenograft, survival; format: in vivo, mice; conditions: treatment for 7 days from 3 days post-injection; vehicle control 23 days
Description: CCRF-CEM cells (5×10^6) were injected intravenously in fourteen NOD.Cg-Prkdc^scid Il2rg^tmlWjl/Sz mice. After 3 days, mice were segregated into two groups that received compound or vehicle for 7 days. Mice in both groups were then followed until moribund and euthanized.
(§1) To assess the in vivo relevance of these observations, mice with subcutaneous or intravenous CCRF-CEM cells were treated with either Compound B or DMSO vehicle. In the subcutaneous xenographs, luciferase expressing CCRF-CEM cells were injected into the flanks of immunodeficient mice and allowed to grow for 1 week before administering vehicle control or 10 mg/kg of Compound B for a period of 4 days. In the intravenous xenographs, treatment commenced 3-day post-injection of tumor cells for a period of 7 days.

[3] = tested on: CCRF-CEM cells; test: Proliferation and apoptosis of CCRF-CEM cells; format: cell-based; conditions: 1, 2.5, or 5 μM, within 24 hours, persisted 4 days
Description: CCRF-CEM cells were obtained from ATCC and grown in RPMI-1640 medium containing 10% FBS and antibiotics.
Cell counts for mice thymii were determined as described in Swat, W. et al., Essential role of PI3 Kdelta and PI3 Kgamma in thymocyte survival, Blood 107, 2415-2422 (2006). Cell proliferation of untransfected or shRNA transfected CCRF-CEM cells was followed by cell counting of samples in triplicate using a hemocytometer.
Cells were stained with APC-conjugated Annexin-V (BD Biosciences) in Annexin Binding Buffer (Miltyeni Biotec) and analyzed by flow cytometry.
CCRF-CEM cells, a PTEN null acute lymphoblastoid leukemia cell line, were treated with Compound B of 1, 2.5, or 5 μM or control of DMSO vehicle for a period of 4 days.

[4] = tested on: PTEN null T-ALL; test: Diseased Lck/PTEN^fl/fl mice with PTEN null T-ALL; format: in vivo
Description: Mouse whole blood was incubated with appropriate antibodies and processed using the BD Bioscience BD FACS Lysing Solution according to the manufacturer's instructions. Immediately after lysis, cells were permeabilized with 0.025% Tween-20 in lysing solution for 15 minutes, then incubated with Ki67 antibodies. Single cell suspensions of thymocytes were isolated and stained with the appropriate antibodies as described in Swat, W. et al., Essential role of PI3 Kdelta and PI3 Kgamma in thymocyte survival, Blood 107, 2415-2422 (2006).
All mice were kept in specific pathogen-free facility at Columbia University Medical Center. All procedures were performed in accordance with the guidelines of the Institutional Animal Care and Use Committee. Lck-cre, NOD.Cg-Prkdc^scid Il2rg^tmlWjl/Sz and Gt(ROSA)26Sor^tml(Luc)Kael/J mice were obtained from the Jackson Laboratory. Mice deficient for PTEN in the T-cell lineage were generated by crossing Lck-cre with floxed PTEN. P110γ^−/− and p110δ^−/− mice as described in Swat, W. et al., Essential role of PI3 Kdelta and PI3 Kgamma in thymocyte survival, Blood 107, 2415-2422 (2006). The animals were intercrossed with Lck-cre/PTEN^fl/fl animals to generate mice homozygous mutant for either p110γ or p110δ and PTEN or homozygous mutant for p110γ, 110δ, and PTEN.
Lck/PTEN^fl/fl mice were crossed with the mice having a luciferase cDNA, preceded by a LoxP-stop-LoxP cassette was introduced into the ubiquitously expressed ROSA26 locus. […] The results are consistent with the reduction in whole blood cells and CD4 single positive population of tumor cells.
Lck/PTEN^fl/fl mice having T-ALL were administered with Compound B at an oral dose of 10 mg/kg every 8 hours or DMSO vehicle for a period of 7 days. […] Compound B extended the median survival to 45 days compared to 7.5 days for the vehicle group (data not shown).
Diseased Lck/PTEN^fl/fl mice (i.e. Lck/PTEN^fl/fl mice diagnosed with T-ALL) were treated with Compounds B for a period of 7 days. Mice were examined for sequential blood counts, peripheral smears, and flow cytometric analyses. […] Forward scatter (FSC) and Ki67 staining were indicators of cell size and proliferation, respectively; and apoptosis was detected by assessing the […] population after PI staining.
PTEN^fl/fl mice were crossed with the mice having a luciferase cDNA, preceded by a LoxP-stop-LoxP cassette was introduced into the ubiquitously expressed ROSA26 locus. Progeny were then crossed with Lck-cre transgenics to delete PTEN in T-cell progenitors and induce expression of luciferase. Imaging on T-ALL tumor bearing mice was performed at Day 0 and 4 after treatment of Compound B or vehicle.

[5] = tested on: primary T-ALL tumors; test: Viability of primary T-ALL tumors; format: cell-based, human; conditions: 1.0, 2.5, and 5.0 μM, 72 hours
Description: Cryopreserved samples from the Columbia Presbyterian Hospital, the Erasmus MC-Sophia Children's Hospital, and the University of Padua were used. All samples were collected with informed consent and supervised by the institutes' review boards and the Acute Lymphoblastic Leukemia Strategic Scientific Committee.
For primary T-ALL samples, cell viability was determined using the BD Cell Viability kit (BD Biosciences) and fluorescent counting beads as previously described in Armstrong, F. et al., NOTCH is a key regulator of human T-cell acute leukemia initiating cell activity, Blood 113, 1730-1740 (2009). Cells were plated with MS5-DL1 stroma cells. After 72 hours following treatment, cells were harvested and stained with an APC-conjugated anti-human CD45 according to the manufacturer's instructions. For solid tumor cell lines, cellular viability was determined using the AlamarBlue kit (Invitrogen). About 10,000 cells in 100 μL of media containing 10% FBS were aliquoted into individual wells of a 96-well plate and treated with vehicle (DMSO) or compound in triplicate for 24 hours. Ten μL of AlamarBlue reagent was added to each well and incubated for 4 hours at 37° C. with 5% CO2. Fluorescence was measured with an excitation wavelength at 530 to 560 nm and emission wavelength at 590 nm using Spectramax M5 plate reader (Molecular Devices, Sunnyvale, Calif.). […]

[6] = tested on: CCRF-CEM xenografts; test: Subcutaneous CCRF-CEM xenograft, bioluminescence; format: in vivo, mice; conditions: 10 mg/kg for 4 days, subcutaneous tumors
Description: Luminescent CCRF-CEM (CEM-luc) cells were generated by lentiviral infection with FUW-luc and selection with neomycin. Luciferase expression was verified with the Dual-Luciferase Reporter Assay kit (Promega). CEM-luc cells (2.5×10^6) embedded in Matrigel (BD Biosciences) were injected in the flank of NOD.Cg-Prkdc^scid Il2rg^tmlWjl/Sz mice. After 1 week, mice were treated by oral gavage with vehicle (0.5% methyl cellulose, 0.1% Tween-80) or compound every 8 hours daily for 4 days. Mice were anesthetized by isoflurane inhalation […] of D-luciferin ([…], Xenogen). Photonic emission was imaged with the In Vivo Imaging System (IVIS, Xenogen). Tumor bioluminescence was quantified by integrating the photonic flux (photons per second) through a region encircling each tumor using the LIVING IMAGES software package (Xenogen).
as §1

[7] = molecular target: PI3K p110α (Mus musculus, UniProt P42337); test: Cellular p110α signaling: PDGF-stimulated MEFs, pAkt Western blot; format: cell-based, murine; conditions: cellular assay, MEFs, PDGF; read-out: EC50 p110α
Description: (§3) To analyze PI3K p110α and p110β signaling, murine embryo fibroblast (MEFs) were removed from FBS and starved for 2 hours followed by stimulation with 10 ng/mL of PDGF (Cell Signaling Technologies, Danvers, Mass.) or 10 μM of LPA (Echelon, Salt Lake City, Utah) for 10 minutes at 37° C., respectively. After washing once in cold phosphate-buffered saline (PBS), the cell pellet was resuspended in 1× cell lysis buffer (Cell Signaling Technologies) supplemented with mini protease inhibitor mix (Roche, Indianapolis, Ind.), phosphate inhibitor cocktail set I and II (Calbiochem, San Diego, Calif.) for 15 minutes on ice. Whole-cell lysates were obtained by centrifugation at 16,000 g for 10 minutes at 4° C., and the soluble protein was analyzed by Western blotting for Akt and pAkt levels. To analyze PI3K p110δ and p110γ signaling, basophil activation was measured in isolated PBMC or whole blood using the Flow2 CAST kit according to the manufacture's standardized methods (Buhlman Laboratories AG, Switzerland). Briefly, p110δ was activated with anti-FCεRI and p110γ was activated with fMLP (2 μM) in the absence or presence of compounds. To monitor the basophil cell population and cellular activation, anti-CD63-FITC and anti-CCR3-PE antibodies were added to each sample. Cells were fixed and analyzed on a FC500 MPL flow cytometer (Beckman Coulter, Brea, Calif.).

[8] = tested on: T Cell Malignancies; test: Cellular viability, T cell malignancies; format: cell-based; conditions: N = 7
Description: (§2) Cellular viability and pAkt activity were used to determine effects of Compounds A, C, and D in solid tumor, B-cell malignancies, and T-cell malignancies.

[9] = tested on: pAkt in B Cell Malignancies; test: pAkt activity, B cell malignancies; format: cell-based; conditions: N = 7
Description: as §2

[10] = molecular target: T1, PI3K p110β (Mus musculus, UniProt Q8BTI9); test: Cellular p110β signaling: LPA-stimulated MEFs, pAkt Western blot; format: cell-based, murine; conditions: cellular assay, read-out: EC50 p110β
T1 construct: endogenous in cells; host or cells: murine embryo fibroblasts (MEFs)
T1 sequence (Q8BTI9 whole entry): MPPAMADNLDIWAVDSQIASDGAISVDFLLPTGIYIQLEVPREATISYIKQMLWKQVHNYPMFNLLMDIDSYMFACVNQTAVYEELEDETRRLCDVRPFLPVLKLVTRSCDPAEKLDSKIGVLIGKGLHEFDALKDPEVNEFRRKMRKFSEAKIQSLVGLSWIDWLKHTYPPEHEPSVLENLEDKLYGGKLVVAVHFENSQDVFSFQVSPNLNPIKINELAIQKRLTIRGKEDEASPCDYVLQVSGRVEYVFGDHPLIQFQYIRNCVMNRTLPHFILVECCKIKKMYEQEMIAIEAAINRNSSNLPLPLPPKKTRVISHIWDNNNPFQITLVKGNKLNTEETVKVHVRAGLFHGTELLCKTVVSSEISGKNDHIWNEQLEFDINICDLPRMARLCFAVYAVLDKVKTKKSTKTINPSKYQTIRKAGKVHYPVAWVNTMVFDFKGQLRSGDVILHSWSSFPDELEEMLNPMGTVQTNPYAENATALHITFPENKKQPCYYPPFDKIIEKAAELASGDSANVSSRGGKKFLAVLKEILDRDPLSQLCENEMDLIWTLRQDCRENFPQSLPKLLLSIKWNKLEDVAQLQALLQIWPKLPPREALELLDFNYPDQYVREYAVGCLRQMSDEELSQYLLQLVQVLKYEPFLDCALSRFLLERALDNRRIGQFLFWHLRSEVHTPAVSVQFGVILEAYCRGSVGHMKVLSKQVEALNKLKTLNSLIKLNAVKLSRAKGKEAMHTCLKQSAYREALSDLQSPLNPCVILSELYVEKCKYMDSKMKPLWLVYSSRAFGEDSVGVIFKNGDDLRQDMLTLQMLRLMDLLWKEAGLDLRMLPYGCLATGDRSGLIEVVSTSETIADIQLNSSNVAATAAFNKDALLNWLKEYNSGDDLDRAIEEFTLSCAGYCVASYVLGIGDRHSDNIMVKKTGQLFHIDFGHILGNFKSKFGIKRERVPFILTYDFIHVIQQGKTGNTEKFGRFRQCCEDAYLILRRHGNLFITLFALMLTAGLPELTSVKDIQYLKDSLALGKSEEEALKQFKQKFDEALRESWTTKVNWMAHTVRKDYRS
T1 sequence (P26450 whole entry partner): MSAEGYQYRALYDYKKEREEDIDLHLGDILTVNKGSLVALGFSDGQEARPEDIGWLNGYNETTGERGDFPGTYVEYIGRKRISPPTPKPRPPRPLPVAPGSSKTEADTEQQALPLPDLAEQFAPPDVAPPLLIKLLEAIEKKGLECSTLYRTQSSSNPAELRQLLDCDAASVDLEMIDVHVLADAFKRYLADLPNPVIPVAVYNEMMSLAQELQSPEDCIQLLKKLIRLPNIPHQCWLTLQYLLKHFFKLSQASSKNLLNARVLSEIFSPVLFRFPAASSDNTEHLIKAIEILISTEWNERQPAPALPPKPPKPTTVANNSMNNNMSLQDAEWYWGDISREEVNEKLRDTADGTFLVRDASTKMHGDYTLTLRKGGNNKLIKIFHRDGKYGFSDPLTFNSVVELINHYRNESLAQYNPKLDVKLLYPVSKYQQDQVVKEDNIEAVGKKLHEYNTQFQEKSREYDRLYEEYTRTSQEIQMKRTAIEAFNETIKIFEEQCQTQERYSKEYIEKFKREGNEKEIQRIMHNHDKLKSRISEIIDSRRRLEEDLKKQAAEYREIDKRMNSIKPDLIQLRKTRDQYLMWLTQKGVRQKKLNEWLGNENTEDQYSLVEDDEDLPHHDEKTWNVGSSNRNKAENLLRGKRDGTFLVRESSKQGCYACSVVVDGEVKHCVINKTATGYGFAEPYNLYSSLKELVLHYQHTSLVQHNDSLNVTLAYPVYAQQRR
Description: as §3

[11] = tested on: B Cell Malignancies; test: Cellular viability, B cell malignancies; format: cell-based; conditions: N = 7
Description: as §2

[12] = tested on: Solid tumor; test: Cellular viability, solid tumor; format: cell-based; conditions: N = 14
Description: For primary T-ALL samples, cell viability was determined using the BD Cell Viability kit (BD Biosciences) and fluorescent counting beads as previously described in Armstrong, F. et al., NOTCH is a key regulator of human T-cell acute leukemia initiating cell activity, Blood 113, 1730-1740 (2009). Cells were plated with MS5-DL1 stroma cells. After 72 hours following treatment, cells were harvested and stained with an APC-conjugated anti-human CD45 according to the manufacturer's instructions. For solid tumor cell lines, cellular viability was determined using the AlamarBlue kit (Invitrogen). About 10,000 cells in 100 μL of media containing 10% FBS were aliquoted into individual wells of a 96-well plate and treated with vehicle (DMSO) or compound in triplicate for 24 hours. Ten μL of AlamarBlue reagent was added to each well and incubated for 4 hours at 37° C. with 5% CO2. Fluorescence was measured with an excitation wavelength at 530 to 560 nm and emission wavelength at 590 nm using Spectramax M5 plate reader (Molecular Devices, Sunnyvale, Calif.).
as §2

[13] = molecular target: T2, PI3K p110δ (Homo sapiens, UniProt O00329); test: SelectScreen in vitro kinase inhibitor assay, p110δ; format: biochemical
T2 construct: endogenous in cells; host or cells: basophils in isolated PBMC or whole blood
T2 sequence (O00329 whole entry): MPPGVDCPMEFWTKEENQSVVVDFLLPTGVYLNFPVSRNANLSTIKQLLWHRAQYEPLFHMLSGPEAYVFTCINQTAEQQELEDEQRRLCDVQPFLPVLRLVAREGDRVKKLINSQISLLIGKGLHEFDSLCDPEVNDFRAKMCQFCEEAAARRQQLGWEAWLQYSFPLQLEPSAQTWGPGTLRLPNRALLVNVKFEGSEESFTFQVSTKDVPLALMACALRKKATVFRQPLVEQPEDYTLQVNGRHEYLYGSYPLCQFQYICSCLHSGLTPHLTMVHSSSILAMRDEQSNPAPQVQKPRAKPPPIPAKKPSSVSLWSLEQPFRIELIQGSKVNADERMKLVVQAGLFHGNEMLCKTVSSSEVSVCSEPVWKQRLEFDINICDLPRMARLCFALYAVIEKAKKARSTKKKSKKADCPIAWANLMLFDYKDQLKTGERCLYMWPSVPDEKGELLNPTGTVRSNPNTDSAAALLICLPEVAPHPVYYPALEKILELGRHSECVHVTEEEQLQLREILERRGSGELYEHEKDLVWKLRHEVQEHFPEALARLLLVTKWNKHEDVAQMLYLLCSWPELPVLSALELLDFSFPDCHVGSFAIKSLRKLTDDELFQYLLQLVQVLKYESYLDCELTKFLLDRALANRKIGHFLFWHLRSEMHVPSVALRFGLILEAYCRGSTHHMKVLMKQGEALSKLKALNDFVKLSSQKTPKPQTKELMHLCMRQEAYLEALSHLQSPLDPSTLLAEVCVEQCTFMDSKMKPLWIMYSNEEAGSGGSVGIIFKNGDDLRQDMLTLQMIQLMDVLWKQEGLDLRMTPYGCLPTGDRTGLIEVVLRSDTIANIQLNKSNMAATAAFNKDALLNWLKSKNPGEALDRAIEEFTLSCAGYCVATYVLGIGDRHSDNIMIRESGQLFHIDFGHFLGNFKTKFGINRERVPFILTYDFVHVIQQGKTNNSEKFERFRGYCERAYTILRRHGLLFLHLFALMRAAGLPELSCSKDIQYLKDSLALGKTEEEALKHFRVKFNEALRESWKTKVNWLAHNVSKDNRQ
T2 sequence (P27986 whole entry partner): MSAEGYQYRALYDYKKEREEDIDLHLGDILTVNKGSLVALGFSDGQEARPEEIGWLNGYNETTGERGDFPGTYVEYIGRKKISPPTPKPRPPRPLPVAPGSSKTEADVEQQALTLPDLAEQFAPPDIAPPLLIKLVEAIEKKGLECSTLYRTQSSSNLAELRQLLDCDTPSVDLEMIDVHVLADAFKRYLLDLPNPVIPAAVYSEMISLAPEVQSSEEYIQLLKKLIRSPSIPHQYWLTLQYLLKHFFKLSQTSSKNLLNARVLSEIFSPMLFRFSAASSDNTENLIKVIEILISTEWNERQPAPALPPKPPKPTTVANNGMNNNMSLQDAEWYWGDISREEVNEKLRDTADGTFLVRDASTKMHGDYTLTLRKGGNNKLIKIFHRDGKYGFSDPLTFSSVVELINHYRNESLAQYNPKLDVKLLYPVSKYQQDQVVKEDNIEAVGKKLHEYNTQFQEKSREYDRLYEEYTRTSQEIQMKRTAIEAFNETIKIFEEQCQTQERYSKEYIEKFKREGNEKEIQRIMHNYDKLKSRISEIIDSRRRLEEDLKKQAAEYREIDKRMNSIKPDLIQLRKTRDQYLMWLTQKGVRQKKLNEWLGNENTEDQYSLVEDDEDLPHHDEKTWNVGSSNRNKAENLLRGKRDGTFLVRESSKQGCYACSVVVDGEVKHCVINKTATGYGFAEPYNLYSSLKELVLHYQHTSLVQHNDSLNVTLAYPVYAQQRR

[14] = molecular target: T3, PI3Kβ (p110 β) (Homo sapiens, UniProt P42338); test: TR-FRET enzymatic assay, PI3Kβ; format: biochemical
T3 construct: made in house
Description: (§4) Enzymatic activity of the class I PI3K isoforms was measured using a time resolved fluorescence resonance energy transfer assay (TR-FRET) that monitors formation of the product 3,4,5-inositol triphosphate molecule (PIP3), as it competes with fluorescently labeled PIP3 for binding to the GRP-1 pleckstrin homology domain protein. An increase in phosphatidylinositide 3-phosphate product results in a decrease in TR-FRET signal as the labeled fluorophore is displaced from the GRP-1 protein binding site. Class I PI3K isoforms were expressed and purified as heterodimeric recombinant proteins. All assay reagents and buffers for the TR-FRET assay were purchased from Millipore. […] After an assay reaction time of 30 minutes at 25° C., reactions were terminated with a final concentration of 10 mM EDTA, 10 nM labeled-PIP3, and 35 nM Europium labeled GRP-1 detector protein before reading TR-FRET on an Envision plate reader. IC50 values were calculated from the fit of the dose-response curves to a four-parameter equation. All IC50 values represent geometric mean values of a minimum of four determinations. These assays generally produced results within 3-fold of the reported mean.

[15] = molecular target: T4, PI3K p110β (Homo sapiens, UniProt P42338); test: SelectScreen in vitro kinase inhibitor assay, p110β; format: biochemical
T4 construct: purchased Invitrogen Ltd. (SelectScreen service)

[16] = molecular target: T2, PI3K p110δ; test: Cellular p110δ signaling: basophil activation with anti-FCεRI (Flow2 CAST); format: cell-based; conditions: cellular assay
Description: as §3

[17] = tested on: pAkt in solid tumor; test: pAkt activity, solid tumor; format: cell-based; conditions: N = 14
Description: as §2

[18] = molecular target: PI3Kα (p110α) (Homo sapiens, UniProt P42336); test: biochemical
Description: Enzymatic activity of the class I PI3K isoforms was measured using a time resolved fluorescence resonance energy transfer assay (TR-FRET) that monitors formation of the product 3,4,5-inositol triphosphate molecule (PIP3), as it competes with fluorescently labeled PIP3 for binding to the GRP-1 pleckstrin homology domain protein. An increase in phosphatidylinositide 3-phosphate product results in a decrease in TR-FRET signal as the labeled fluorophore is displaced from the GRP-1 protein binding site. Class I PI3K isoforms were expressed and purified as heterodimeric recombinant proteins. All assay reagents and buffers for the TR-FRET assay were purchased from Millipore. […] IC50 values were calculated from the fit of the dose-response curves to a four-parameter equation. All IC50 values represent geometric mean values of a minimum of four determinations. These assays generally produced results within 3-fold of the reported mean.

[19] = molecular target: T5, PI3Kδ (p110δ) (Homo sapiens, UniProt O00329); test: TR-FRET enzymatic assay, PI3Kδ; format: biochemical
T5 construct: made in house
T5 sequence (O00329 whole entry): as the sequence (O00329 whole entry) above
T5 sequence (P27986 whole entry partner): as the sequence (P27986 whole entry partner) above
Description: as §4

[20] = tested on: pAkt in T Cell Malignancies; test: pAkt activity, T cell malignancies; format: cell-based; conditions: N = 7
Description: as §2

[21] = molecular target: T6, PI3K p110γ (Homo sapiens, UniProt P48736); test: SelectScreen in vitro kinase inhibitor assay, p110γ; format: biochemical; conditions: ATP at Km
T6 sequence (P48736 whole entry): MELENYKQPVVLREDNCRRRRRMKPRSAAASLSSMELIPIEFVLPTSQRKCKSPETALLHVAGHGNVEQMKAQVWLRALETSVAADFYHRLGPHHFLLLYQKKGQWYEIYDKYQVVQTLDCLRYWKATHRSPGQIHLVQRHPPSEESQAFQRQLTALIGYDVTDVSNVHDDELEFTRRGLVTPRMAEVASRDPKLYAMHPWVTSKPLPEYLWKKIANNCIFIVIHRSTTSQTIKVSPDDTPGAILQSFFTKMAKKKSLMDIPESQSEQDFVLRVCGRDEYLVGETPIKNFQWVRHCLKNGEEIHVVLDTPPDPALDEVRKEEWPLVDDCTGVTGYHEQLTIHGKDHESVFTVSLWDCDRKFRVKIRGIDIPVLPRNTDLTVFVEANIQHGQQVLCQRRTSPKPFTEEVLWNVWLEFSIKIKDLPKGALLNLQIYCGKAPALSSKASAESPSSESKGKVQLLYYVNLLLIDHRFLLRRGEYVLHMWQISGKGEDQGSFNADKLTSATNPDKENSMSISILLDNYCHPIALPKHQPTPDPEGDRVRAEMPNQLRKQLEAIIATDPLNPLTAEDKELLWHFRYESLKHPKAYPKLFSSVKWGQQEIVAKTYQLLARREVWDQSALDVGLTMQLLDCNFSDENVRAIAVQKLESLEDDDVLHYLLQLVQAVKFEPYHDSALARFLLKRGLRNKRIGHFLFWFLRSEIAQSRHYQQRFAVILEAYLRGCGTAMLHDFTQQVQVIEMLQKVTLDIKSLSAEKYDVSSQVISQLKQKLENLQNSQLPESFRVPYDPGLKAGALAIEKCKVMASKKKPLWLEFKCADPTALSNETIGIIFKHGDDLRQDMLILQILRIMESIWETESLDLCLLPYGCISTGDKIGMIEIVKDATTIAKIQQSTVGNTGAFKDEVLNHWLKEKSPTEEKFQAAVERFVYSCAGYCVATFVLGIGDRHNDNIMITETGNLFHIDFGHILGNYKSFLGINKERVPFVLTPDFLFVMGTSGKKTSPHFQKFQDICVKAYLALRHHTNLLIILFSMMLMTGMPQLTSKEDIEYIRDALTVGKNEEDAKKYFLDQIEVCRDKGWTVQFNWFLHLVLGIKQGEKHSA

[22] = molecular target: PI3K p110α (Homo sapiens, UniProt P42336); test: biochemical
[23] = molecular target: T6, PI3K p110γ; test: Cellular p110γ signaling: basophil activation with fMLP (Flow2 CAST); format: cell-based; set-up: endogenous in cells; host or cells: basophils in isolated PBMC or whole blood; conditions: cellular assay
Description: as §3

[24] = molecular target: T7, PI3Kγ (p110γ) (Homo sapiens, UniProt P48736); test: TR-FRET enzymatic assay, PI3Kγ; format: biochemical; conditions: 2×Km ATP, geometric mean of at least four determinations
T7 construct: made in house
T7 sequence (P48736 whole entry, species assumed): as the sequence (P48736 whole entry) above
Description: as §4

Cc1ccccc1-n1c(C(C)Nc2nc(N)nc3[nH]cnc23)nc2cccc(C)c2c1=O (centres unmarked) [Compound B, 2-(1-(2-amino-9H-purin-6-ylamino)ethyl)-5-methyl-3-o-tolylquinazolin-4(3H)-one]
phosphorylation of GSK3β and mTOR ([1]; 0.25 to 10 μM): reduction
expression of BIM (including the L and S isoforms) ([1]; Compound B treatment): enhanced expression
phosphorylation of BAD ([1]; Compound B treatment): reduction
Akt/PKB (Ser473) phosphorylation ([1]; […]): reduction and complete abrogation
median survival time [2]: 35 days
apoptosis [3]: promoted apoptosis
proliferation [3]: prevented proliferation
weights of thymi, liver, spleen, and kidneys ([4]; Compound B for 7 days, versus vehicle control, P<0.01): significantly less
WBC ([4]; Compound B treatment for 7 days, by Day 4): significant reduction
bioluminescent imaging signals ([4]; Compound B treatment, Day 4, versus vehicle): dramatically lower
apoptosis (sub-G0 population after propidium iodide staining) ([4]; Compound B treatment, Day 4 through Day 7): increase in apoptosis
median survival ([4]; oral 10 mg/kg every 8 hours for 7 days, vehicle group 7.5 days): 45 days
viability of tumor cells [5]: reduced
difference in luminescence, treated versus vehicle treated animals [6]: 5 fold

CC[C@H](Nc1ncnc2[nH]cnc12)c1nc2cccc(F)c2c(=O)n1-c1ccccc1 [Compound C]
EC50 [7]: > 20000 nM
EC50 [8]: > 25000 nM
EC50 [9]: 367 nM
EC50 [10]: 1900 nM
EC50 [11]: 662 nM
EC50 [12]: 11400 nM

C[C@H](Nc1ncnc2[nH]cnc12)c1nc2ccc(F)cc2c(=O)n1-c1ccccc1 [Compound D]
IC50 [13]: 0.9 nM
EC50 [7]: > 20000 nM
IC50 [14]: 3400 nM
IC50 [15]: 153 nM
EC50 [16]: 4.9 nM
EC50 [17]: 987 nM
IC50 [18]: 7800 nM
EC50 [8]: 7700 nM
IC50 [19]: 9.3 nM
EC50 [9]: 350 nM
EC50 [20]: 988 nM
EC50 [10]: 1200 nM
EC50 [11]: 540 nM
IC50 [21]: 25 nM
EC50 [12]: 4750 nM
IC50 [22]: 303 nM
EC50 [23]: 2350 nM
IC50 [24]: 1000 nM
